In patent US20060264460A1 (Wyeth, priority 2005, published 2006):

target: T1, human Cot/Tpl2 kinase (Homo sapiens, UniProt P41279); assay: Tpl2/Cot kinase assay: GST-MEK1 phosphorylation detected by ELISA (DELFIA Eu); assay type: biochemical; conditions: Tpl2/Cot kinase, GST-MEK1 substrate, 50 uM ATP, 1 h at 30° C.; Table 2
T1 construct: human Cot/Tpl2 kinase construct encoding residues 30-398; 6His (N); made in house; host or cells: Sf9 insect cells, baculovirus system (BD Biosciences)
How it was run: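 Substrate phosphorylation (GST-MEK1 Ser217/221) quantified by DELFIA europium ELISA, yielding IC50 values. Reaction: 1 h at 30° C, pH 7.2 MOPS buffer, 50 uM ATP, 35 nM GST-MEK1, 0.4 nM monomeric His-Tpl2 purified from Sf9 cells, compounds at 1% final DMSO; stopped with EDTA.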

T1 sequence (P41279 30-398): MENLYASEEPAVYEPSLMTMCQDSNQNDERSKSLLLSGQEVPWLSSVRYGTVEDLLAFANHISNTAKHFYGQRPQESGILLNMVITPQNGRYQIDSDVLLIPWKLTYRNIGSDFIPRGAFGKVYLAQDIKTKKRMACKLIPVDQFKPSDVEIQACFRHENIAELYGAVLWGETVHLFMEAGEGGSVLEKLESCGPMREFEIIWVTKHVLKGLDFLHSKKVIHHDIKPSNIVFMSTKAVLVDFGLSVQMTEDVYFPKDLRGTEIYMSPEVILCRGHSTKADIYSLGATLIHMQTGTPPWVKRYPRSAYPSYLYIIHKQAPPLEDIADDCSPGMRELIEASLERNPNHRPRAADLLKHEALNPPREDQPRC

Compound | IC50 [nM]
N#Cc1cnc2c(Cl)cc(NCc3cn(C4CCC(NC5CCCC5)CC4)nn3)cc2c1Nc1ccc(F)c(Cl)c1 (centres unmarked) [Example 1038] | 17
N#Cc1cnc2c(Cl)cc(NCc3cn(C4CCC(Nc5ccccn5)CC4)nn3)cc2c1Nc1ccc(F)c(Cl)c1 (centres unmarked) [Example 1039] | 100
N#Cc1cnc2c(Cl)cc(NCc3cn(C4CCC(NC5CC5)CC4)nn3)cc2c1Nc1ccc(F)c(Cl)c1 (centres unmarked) [Example 1040] | 17
N#Cc1cnc2c(Cl)cc(NCc3cn(CCc4cncc(C(O)(C(F)(F)F)C(F)(F)F)c4)nn3)cc2c1Nc1ccc(F)c(Cl)c1 [Example 1042] | 130
CN1C(C)(C)CC(n2cc(CNc3cc(Cl)c4ncc(C#N)c(Nc5ccc(F)c(Cl)c5)c4c3)nn2)CC1(C)C [Example 1043] | 52
CC(C)(C)OC(=O)N1C2CCC1CC(n1cc(CNc3cc(Cl)c4ncc(C#N)c(Nc5ccc(F)c(Cl)c5)c4c3)nn1)C2 (centres unmarked) [Example 1046] | 300
N#Cc1cnc2c(Cl)cc(NCc3cncc(C4(O)CCOCC4)c3)cc2c1Nc1ccc(F)c(Cl)c1 [Example 1048] | 450
CC(C)N1C2CCC1CC(n1cc(CNc3cc(Cl)c4ncc(C#N)c(Nc5ccc(F)c(Cl)c5)c4c3)nn1)C2 (centres unmarked) [Example 1049] | 420
CS(=O)(=O)N1C2CCC1CC(n1cc(CNc3cc(Cl)c4ncc(C#N)c(Nc5ccc(F)c(Cl)c5)c4c3)nn1)C2 (centres unmarked) [Example 1050] | 46
CC(C)(C)OC(=O)N1CC=C(c2cncc(CNc3cc(Cl)c4ncc(C#N)c(Nc5ccc(F)c(Cl)c5)c4c3)c2)CC1 [Example 1051] | > 3000
CC(=O)N1C2CCC1CC(n1cc(CNc3cc(Cl)c4ncc(C#N)c(Nc5ccc(F)c(Cl)c5)c4c3)nn1)C2 (centres unmarked) [Example 1053] | 24
N#Cc1cnc2c(Cl)cc(NCc3cn(C4CC5CCC(C4)N5CC4CC4)nn3)cc2c1Nc1ccc(F)c(Cl)c1 (centres unmarked) [Example 1057] | 11
CC(C)CN1C2CCC1CC(n1cc(CNc3cc(Cl)c4ncc(C#N)c(Nc5ccc(F)c(Cl)c5)c4c3)nn1)C2 (centres unmarked) [Example 1058] | 70
N#Cc1cnc2c(Cl)cc(NCc3cn(C4CC5CCC(C4)N5C=O)nn3)cc2c1Nc1ccc(F)c(Cl)c1 (centres unmarked) [Example 1059] | 14

Results, then the compound that gave them:

IC50 [nM] | Compound
400 | CCN1CCC(O)(c2cncc(CNc3cc(Cl)c4ncc(C#N)c(Nc5ccc(F)c(Cl)c5)c4c3)c2)CC1 [Example 1034]
36 | CCNC1CCC(n2cc(CNc3cc(Cl)c4ncc(C#N)c(Nc5ccc(F)c(Cl)c5)c4c3)nn2)CC1 (centres unmarked) [Example 1035]
40 | CNC1CCC(n2cc(CNc3cc(Cl)c4ncc(C#N)c(Nc5ccc(F)c(Cl)c5)c4c3)nn2)CC1 (centres unmarked) [Example 1036]
20 | CC(C)NC1CCC(n2cc(CNc3cc(Cl)c4ncc(C#N)c(Nc5ccc(F)c(Cl)c5)c4c3)nn2)CC1 (centres unmarked) [Example 1037]
5.7 | N#Cc1cnc2c(Cl)cc(NCc3cn(C4CCC(O)CC4)nn3)cc2c1Nc1ccc(F)c(Cl)c1 (centres unmarked) [Example 1041]
860 | CC(C)N1CCC(c2cc(CNc3cc(Br)c4ncc(C#N)c(Nc5ccc(F)c(Cl)c5)c4c3)[nH]n2)CC1 [Example 1044]
610 | CCN1CCC(c2cc(CNc3cc(Br)c4ncc(C#N)c(Nc5ccc(F)c(Cl)c5)c4c3)[nH]n2)CC1 [Example 1045]
470 | N#Cc1cnc2c(Cl)cc(NCc3cncc(Br)c3)cc2c1Nc1ccc(F)c(Cl)c1 [Example 1047]
23 | CCNC(=O)N1C2CCC1CC(n1cc(CNc3cc(Cl)c4ncc(C#N)c(Nc5ccc(F)c(Cl)c5)c4c3)nn1)C2 (centres unmarked) [Example 1052]
1300 | CC(C)N1CC=C(c2cncc(CNc3cc(Cl)c4ncc(C#N)c(Nc5ccc(F)c(Cl)c5)c4c3)c2)CC1 [Example 1054]
8 | CCCN1C2CCC1CC(n1cc(CNc3cc(Cl)c4ncc(C#N)c(Nc5ccc(F)c(Cl)c5)c4c3)nn1)C2 (centres unmarked) [Example 1055]
880 | N#Cc1cnc2c(Cl)cc(NCc3cncc(C4=CCNCC4)c3)cc2c1Nc1ccc(F)c(Cl)c1 [Example 1056]
45 | CC1(O)CCC(n2cc(CNc3cc(Cl)c4ncc(C#N)c(Nc5ccc(F)c(Cl)c5)c4c3)nn2)CC1 (centres unmarked) [Example 1060]
600 | CC(C)N1CCC(c2cncc(CNc3cc(Cl)c4ncc(C#N)c(Nc5ccc(F)c(Cl)c5)c4c3)c2)CC1 [Example 1061]

target: Tpl2 (Homo sapiens, UniProt P41279); assay: not given; conditions: background statement; cited from earlier work
Sequence (P41279 whole entry): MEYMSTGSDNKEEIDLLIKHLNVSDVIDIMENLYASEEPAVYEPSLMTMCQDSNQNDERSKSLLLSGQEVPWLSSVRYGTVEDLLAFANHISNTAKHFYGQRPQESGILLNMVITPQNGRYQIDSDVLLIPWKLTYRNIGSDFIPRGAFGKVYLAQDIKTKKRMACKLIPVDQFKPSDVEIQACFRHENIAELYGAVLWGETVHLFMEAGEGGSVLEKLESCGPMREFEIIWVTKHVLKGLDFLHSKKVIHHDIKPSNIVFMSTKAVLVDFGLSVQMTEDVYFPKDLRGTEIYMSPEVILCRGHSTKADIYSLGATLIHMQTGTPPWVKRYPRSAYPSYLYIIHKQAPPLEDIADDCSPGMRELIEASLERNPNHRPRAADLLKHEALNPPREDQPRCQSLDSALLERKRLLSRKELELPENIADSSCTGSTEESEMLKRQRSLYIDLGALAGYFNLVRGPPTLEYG

Compound | inhibition of Tpl2
CN[C@@H]1C[C@H]2O[C@@](C)([C@@H]1OC)n1c3ccccc3c3c4c(c5c6ccccc6n2c5c31)C(=O)NC4 [staurosporine] | not inhibited
